Experimental findings from ChEMBL document CHEMBL3217540, “New 3-amidinophenylalanine-derived inhibitors of matriptase” (Medchemcomm, 2012) are described below.

Experiment [1] addresses T1, Suppressor of tumorigenicity 14 protein (Homo sapiens, UniProt Q9Y5Y6).
T1 sequence (Q9Y5Y6 whole entry): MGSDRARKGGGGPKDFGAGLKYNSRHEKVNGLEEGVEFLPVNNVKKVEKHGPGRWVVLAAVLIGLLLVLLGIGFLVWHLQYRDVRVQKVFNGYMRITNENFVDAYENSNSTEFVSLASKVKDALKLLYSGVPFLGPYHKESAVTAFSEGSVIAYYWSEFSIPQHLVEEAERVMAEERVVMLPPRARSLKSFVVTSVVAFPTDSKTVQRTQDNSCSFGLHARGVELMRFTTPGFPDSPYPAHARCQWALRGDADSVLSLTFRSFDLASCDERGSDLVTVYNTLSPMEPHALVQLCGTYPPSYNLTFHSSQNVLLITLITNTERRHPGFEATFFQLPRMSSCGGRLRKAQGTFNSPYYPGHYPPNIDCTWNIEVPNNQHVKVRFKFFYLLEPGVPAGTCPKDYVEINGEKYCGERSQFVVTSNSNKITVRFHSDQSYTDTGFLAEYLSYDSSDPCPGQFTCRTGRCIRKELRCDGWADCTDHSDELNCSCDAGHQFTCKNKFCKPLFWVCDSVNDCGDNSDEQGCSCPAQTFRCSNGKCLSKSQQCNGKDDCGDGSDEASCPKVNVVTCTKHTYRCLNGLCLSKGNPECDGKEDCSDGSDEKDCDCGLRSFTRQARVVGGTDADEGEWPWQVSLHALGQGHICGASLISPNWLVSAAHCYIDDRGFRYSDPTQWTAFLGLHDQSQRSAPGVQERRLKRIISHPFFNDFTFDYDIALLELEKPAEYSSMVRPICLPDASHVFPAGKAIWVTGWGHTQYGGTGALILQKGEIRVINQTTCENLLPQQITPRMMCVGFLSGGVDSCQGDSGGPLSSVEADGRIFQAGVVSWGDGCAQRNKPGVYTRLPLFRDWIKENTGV
Description: Inhibition of matriptase (unknown origin) using MeSO2-D-Cha-Gly-Arg-pNA as substrate.

Experiment [2] deals with Coagulation factor X (Homo sapiens, UniProt P00742). Description: Inhibition of human factor 10a using CH3OCO-D-Cha-Gly-Arg-pNA as substrate.
Coagulation factor X, sequence (P00742 41-179 limits assumed): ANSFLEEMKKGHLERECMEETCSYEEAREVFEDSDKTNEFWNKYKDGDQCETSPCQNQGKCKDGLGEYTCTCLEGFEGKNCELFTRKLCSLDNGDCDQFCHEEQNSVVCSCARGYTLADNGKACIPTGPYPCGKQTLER
Coagulation factor X, sequence (P00742 235-488 limits assumed): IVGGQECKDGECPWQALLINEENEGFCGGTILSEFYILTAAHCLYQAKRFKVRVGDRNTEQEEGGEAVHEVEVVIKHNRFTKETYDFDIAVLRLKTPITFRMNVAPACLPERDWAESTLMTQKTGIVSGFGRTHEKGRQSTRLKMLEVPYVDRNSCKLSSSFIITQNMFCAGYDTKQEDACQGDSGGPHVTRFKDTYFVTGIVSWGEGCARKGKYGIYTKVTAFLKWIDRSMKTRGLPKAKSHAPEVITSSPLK
Experiment [3] concerns the target Prothrombin (Bos taurus, UniProt P00735). Description: Inhibition of bovine thrombin using MeSO2-D-Cha-Gly-Arg-pNA as substrate.
Experiment [4] concerns the target T2, Transmembrane protease serine 6 (Homo sapiens, UniProt Q8IU80).
T2 sequence (Q8IU80 whole entry): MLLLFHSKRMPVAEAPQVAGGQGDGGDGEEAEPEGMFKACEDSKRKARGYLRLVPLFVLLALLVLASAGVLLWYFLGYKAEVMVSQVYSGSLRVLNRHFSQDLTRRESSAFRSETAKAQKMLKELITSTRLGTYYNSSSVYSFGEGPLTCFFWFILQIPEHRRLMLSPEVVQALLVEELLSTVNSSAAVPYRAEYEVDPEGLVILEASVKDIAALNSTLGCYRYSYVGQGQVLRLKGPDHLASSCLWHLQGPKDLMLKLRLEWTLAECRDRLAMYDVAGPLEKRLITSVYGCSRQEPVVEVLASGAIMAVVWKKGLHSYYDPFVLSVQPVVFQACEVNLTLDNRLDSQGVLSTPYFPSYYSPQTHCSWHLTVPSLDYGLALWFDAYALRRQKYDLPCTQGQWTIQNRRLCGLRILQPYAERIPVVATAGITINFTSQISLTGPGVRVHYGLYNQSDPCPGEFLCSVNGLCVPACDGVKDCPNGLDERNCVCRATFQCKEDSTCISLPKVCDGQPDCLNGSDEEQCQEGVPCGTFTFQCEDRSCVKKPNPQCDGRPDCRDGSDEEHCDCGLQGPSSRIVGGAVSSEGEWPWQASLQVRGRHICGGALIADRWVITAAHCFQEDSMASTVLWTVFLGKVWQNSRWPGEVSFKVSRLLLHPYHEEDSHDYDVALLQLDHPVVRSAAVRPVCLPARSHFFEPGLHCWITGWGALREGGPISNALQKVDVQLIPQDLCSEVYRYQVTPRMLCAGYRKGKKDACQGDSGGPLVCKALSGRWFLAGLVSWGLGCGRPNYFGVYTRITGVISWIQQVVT
Description: Inhibition of matriptase-2 (unknown origin) expressed in HEK293 cells using ln-Ala-Arg-a-Arg-para-nitroanilide as substrate by UV-vis spectrophotometry. The experiment is classed as cell-based.

As to `N=C(N)c1cccc(C[C@H](NS(=O)(=O)c2cccc(-c3ccc(Cl)cc3Cl)c2)C(=O)N2CCC(CCN)CC2)c1`, the Ki in experiment [1] amounted to 2 nM; in experiment [2], 50 nM; in experiment [3] it was 20 nM; in experiment [4] it was 110 nM.

Regarding `N=C(N)c1cccc(C[C@H](NS(=O)(=O)c2cccc(-c3ccccc3F)c2)C(=O)N2CCC(CCN)CC2)c1`, the Ki in experiment [1] was 23 nM; in experiment [2], 810 nM; in experiment [3], 40 nM; in experiment [4] it was 2100 nM.

On to `CCOc1ccc(-c2cccc(S(=O)(=O)N[C@@H](Cc3cccc(C(=N)N)c3)C(=O)N3CCC(CCCC(=O)NC)CC3)c2)c(Cl)c1`, for which the Ki stood at 49 nM in experiment [1], 180 nM in experiment [2], 30 nM in experiment [3] and 1300 nM in experiment [4].

For the molecule `N=C(N)c1cccc(C[C@H](NS(=O)(=O)c2cccc(NC(=O)CCN)c2)C(=O)N2CCC(NC(=O)NC3CCCCC3)CC2)c1`, the Ki in experiment [1] turned out to be 8 nM; in experiment [2], 1200 nM; in experiment [3], 35900 nM; in experiment [4] it was 790 nM.

With `CCOc1ccc(-c2cccc(S(=O)(=O)N[C@@H](Cc3cccc(C(=N)N)c3)C(=O)N3CCC(CCN)CC3)c2)c(Cl)c1`, the inhibition constant (Ki) in experiment [1] is 13 nM; in experiment [2] it was 170 nM; in experiment [3], 400 nM; in experiment [4] it was 400 nM.

In the case of `CCNC(=O)NC1CCN(C(=O)[C@H](Cc2cccc(C(=N)N)c2)NS(=O)(=O)c2cccc(NC(=O)CCN)c2)CC1`, the Ki in experiment [1] was determined as 39 nM; in experiment [2], 8890 nM; in experiment [3], 15300 nM; in experiment [4], 2400 nM.

As for `N=C(N)c1cccc(C[C@H](NS(=O)(=O)c2cccc(-c3ccc(Cl)c(Cl)c3)c2)C(=O)N2CCC(CCN)CC2)c1`, the results for the Ki in experiment [1], in experiment [3] and in experiment [4] were 18 nM, 30 nM and 580 nM, respectively.

For `N=C(N)c1cccc(C[C@H](NS(=O)(=O)c2cccc(-c3cccc(F)c3)c2)C(=O)N2CCC(CCN)CC2)c1`, the Ki in experiment [1] was found to be 52 nM; in experiment [2], 3200 nM; in experiment [3], 40 nM; in experiment [4], 3200 nM.

Turning to `N=C(N)c1cccc(C[C@H](NS(=O)(=O)c2cccc(NC(=O)CCN)c2)C(=O)N2CCC(NC(N)=O)CC2)c1`, the Ki in experiment [1] is 35 nM; in experiment [2], 16900 nM; in experiment [3] it was 9700 nM; in experiment [4] it was 3900 nM.

In the case of `CCNC(=O)NCCC1CCN(C(=O)[C@H](Cc2cccc(C(=N)N)c2)NS(=O)(=O)c2cccc(NC(=O)CCN)c2)CC1`, the inhibition constant Ki in experiment [1] is 12 nM; in experiment [2], 4790 nM; in experiment [3], 130 nM; in experiment [4], 460 nM.

`N=C(N)c1cccc(C[C@H](NS(=O)(=O)c2cccc(NC(=O)CCN)c2)C(=O)N2CCC(CCNC(=O)Nc3ccccc3)CC2)c1`: the Ki in experiment [1] was determined as 11 nM; in experiment [2] it was 2610 nM; in experiment [3] it was 440 nM; in experiment [4] it was 1900 nM.

For the molecule `N=C(N)c1cccc(C[C@H](NS(=O)(=O)c2cccc(NC(=O)CCN)c2)C(=O)N2CCC(CCNC(=O)NCc3ccccc3)CC2)c1`, the Ki in experiment [1] amounted to 17 nM; in experiment [2], 5520 nM; in experiment [3] it was 230 nM; in experiment [4] it was 1300 nM.

With `N=C(N)c1cccc(C[C@H](NS(=O)(=O)c2cccc(-c3ccc(F)cc3)c2)C(=O)N2CCC(CCN)CC2)c1`, the inhibition constant Ki is 33 nM in experiment [1], 1120 nM in experiment [2], 5 nM in experiment [3] and 3200 nM in experiment [4].

As for `N=C(N)c1cccc(C[C@H](NS(=O)(=O)c2cccc(NC(=O)CCN)c2)C(=O)N2CCC(NC(=O)Nc3ccccc3)CC2)c1`, the Ki came to 14 nM in experiment [1], 3410 nM in experiment [2], 9250 nM in experiment [3] and 1300 nM in experiment [4].

On to `N=C(N)c1cccc(C[C@H](NS(=O)(=O)c2cccc(NC(=O)CCN)c2)C(=O)N2CCC(NC(=O)NCc3ccccc3)CC2)c1`, for which the Ki was found to be 26 nM in experiment [1], 2450 nM in experiment [2], 7840 nM in experiment [3] and 1100 nM in experiment [4].

Take `CNC(=O)CCCC1CCN(C(=O)[C@H](Cc2cccc(C(=N)N)c2)NS(=O)(=O)c2cccc(-c3ccc(Cl)cc3Cl)c2)CC1`: the Ki came to 13 nM in experiment [1], 32 nM in experiment [2], 1 nM in experiment [3] and 350 nM in experiment [4].

For `CNC(=O)NC1CCN(C(=O)[C@H](Cc2cccc(C(=N)N)c2)NS(=O)(=O)c2cccc(NC(=O)CCN)c2)CC1`, the Ki stood at 56 nM in experiment [1], 14100 nM in experiment [2], 10800 nM in experiment [3] and 1300 nM in experiment [4].

`CNC(=O)CCCC1CCN(C(=O)[C@H](Cc2cccc(C(=N)N)c2)NS(=O)(=O)c2cccc(-c3ccc(OC)cc3OC)c2)CC1`: the Ki in experiment [1] was found to be 8 nM; in experiment [2], 60 nM; in experiment [3], 1 nM; in experiment [4], 770 nM.

Turning to `CNC(=O)CCCC1CCN(C(=O)[C@H](Cc2cccc(C(=N)N)c2)NS(=O)(=O)c2cccc(-c3ccc(Cl)c(Cl)c3)c2)CC1`, the Ki came out at 74 nM in experiment [1], 230 nM in experiment [2], 3 nM in experiment [3] and 1600 nM in experiment [4].

For `CNC(=O)NCCC1CCN(C(=O)[C@H](Cc2cccc(C(=N)N)c2)NS(=O)(=O)c2cccc(NC(=O)CCN)c2)CC1`, the Ki stood at 7 nM in experiment [1], 7070 nM in experiment [2], 40 nM in experiment [3] and 1200 nM in experiment [4].

As for `CNC(=O)CCCC1CCN(C(=O)[C@H](Cc2cccc(C(=N)N)c2)NS(=O)(=O)c2cccc(-c3ccc(F)cc3)c2)CC1`, the Ki in experiment [1] worked out at 120 nM; in experiment [2], 550 nM; in experiment [3], 1 nM; in experiment [4] it was 4400 nM.

Take `CNC(=O)CCCC1CCN(C(=O)[C@H](Cc2cccc(C(=N)N)c2)NS(=O)(=O)c2cccc(-c3cccc(F)c3)c2)CC1`: the Ki in experiment [1] is 130 nM; in experiment [2], 3050 nM; in experiment [3], 6 nM; in experiment [4], 10000 nM.

As for `N=C(N)c1cccc(C[C@H](NS(=O)(=O)c2cccc(NC(=O)CCN)c2)C(=O)N2CCC(CCNC(=O)NC3CCCCC3)CC2)c1`, the Ki in experiment [1] stood at 23 nM; in experiment [2], 6450 nM; in experiment [3], 470 nM; in experiment [4], 1800 nM.

With `CNC(=O)CCCC1CCN(C(=O)[C@H](Cc2cccc(C(=N)N)c2)NS(=O)(=O)c2cccc(-c3ccccc3F)c2)CC1`, the Ki came out at 120 nM in experiment [1], 1100 nM in experiment [2], 2 nM in experiment [3] and 3000 nM in experiment [4].

As to `N=C(N)c1cccc(C[C@H](NS(=O)(=O)c2cccc(NC(=O)CCN)c2)C(=O)N2CCC(CCNC(N)=O)CC2)c1`, the Ki in experiment [1] is 14 nM; in experiment [2] it was 13900 nM; in experiment [3] it was 140 nM; in experiment [4] it was 3300 nM.

With `CNC(=O)CCCC1CCN(C(=O)[C@H](Cc2cccc(C(=N)N)c2)NS(=O)(=O)c2cccc(-c3cccc(Cl)c3Cl)c2)CC1`, the Ki in experiment [1] amounted to 51 nM; in experiment [2] it was 260 nM; in experiment [3] it was 4 nM; in experiment [4] it was 750 nM.

As for `N=C(N)c1cccc(C[C@H](NS(=O)(=O)c2cccc(-c3cccc(Cl)c3Cl)c2)C(=O)N2CCC(CCN)CC2)c1`, the Ki in experiment [1] was found to be 11 nM; in experiment [3], 20 nM; in experiment [4], 210 nM.

For orientation: Ki means a measure of affinity in units of concentration, obtained from inhibition or displacement.
